Values belong to the molecule of their own block, whether it stands above or below them.
Legend:
[1] = biological target: T1, recombinant GST-MSUT2 binding to synthetic poly(A) RNA (Homo sapiens, UniProt Q6PJT7); assay: MSUT2/poly(A) RNA AlphaScreen assay; details: dose validated hits of pilot AlphaScreen
T1 construct: fused on or other part: GST at the N-terminus (pGEX6P-1 vector)
T1 sequence (Q6PJT7 595-719 limits assumed): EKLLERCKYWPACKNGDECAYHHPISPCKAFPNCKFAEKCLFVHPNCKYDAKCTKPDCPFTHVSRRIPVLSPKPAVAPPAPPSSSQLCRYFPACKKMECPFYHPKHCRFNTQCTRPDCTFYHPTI
Experimental: To identify small-molecule inhibitors of the MSUT2 protein/poly(A) RNA interaction, a high-throughput AlphaScreen assay optimized for detecting recombinant GST-MSUT2 binding to synthetic poly(A) RNA. The MSUT2 AlphaScreen assay has been well optimized during its development for 384-well screening (z-score=0.96). Two high throughput AlphaScreens of 53,400 distinct small molecules have been completed. A multi-point dose analysis pilot screen of the Spectrum Collection was performed. […] Both the pilot screen and the screening approaches disclosed herein use the Quellos High-Throughput Screening Core at the University of Washington (UW).
Assay of inhibitor dose dependence. Hits identified in the pilot screen were validated by retesting resynthesized compounds over a wide concentration range. […] These hits will be validated by conducting a 14-point dose-response analysis with a drug concentration range from 100 μM down to 1.4 nM; the MSUT2/poly(A) RNA AlphaScreen Assay will be used to produce a readout. From this dose-response analysis, IC50 values will be calculated for dose-responsive hits. For the full scale screen 64 primary hits were identified and will be subject to dose validation as described for pilot screen compounds (and Ebselen, shown in FIG. 20).
The steps and set up for performing the ALPHA assay for MSUT2 binding to polyA are as follows: • 1. Dilutions are in assay buffer (1×PAMA final concentration). • 2. Scale is for 96 well assay in PE […] ½ area plate (total volume/well is 50 μL). • 3. Assays set up in low light conditions • 4. Add 20 μL of diluted donor bead (10 ug/mL) to well bringing well volume to 20 μL • 5. Add 10 μL diluted biotin RNA (15 nM)) bringing well volume to 30 μL • 6. Add 10 μL diluted GST-MSUT2 Protein (125 nM)) bringing well volume to 40 μL • 7. Incubate at room temp for 30 minutes in the dark • 8. Add 10 μl of diluted Acceptor bead (2.5 μg/mL) to well bringing well volume to 50 • 9. Incubate at room temp for 60 minutes in the dark • 10. Read Plate using standard AlphaAssay settings on Perkin Elmer EnSpire® Alpha microplate reader

[2] = test system: wild type or MSUT2 KO mice; assay: Kainic acid induced gliosis in mice; format: in vivo, mouse; details: hippocampi 3 days after single 25 mg/kg i.p.
Experimental: Shown are the hippocampi of wild type or MSUT2 KO mice 3 days after KA treatment (a single dose of 25 mg/kg KA administered i.p.). […] Scale bar=500 μm.

[3] = biological target: biotinylated poly(A)15 RNA; assay: Surface plasmon resonance (Biacore) binding to poly(A) RNA; details: poly(A)15, five protein concentrations 1-0.6 μM
Experimental: Surface plasmon pesonance. SPR experiments were conducted on a Biacore T200 using the Biotin Capture Kit Series S following the manufacturer's instructions (GE). Biotin capture reagent was applied to the sensor chip at a flow rate of 2 μl/minute for 300 seconds. 1 nM biotinylated RNA (BiotinTEG-AAAAAAAAAAAAAAA; SEQ ID NO: 25) was captured at a flow rate of 10 μl/minute for 180 seconds. Samples were flowed across the sensor chip at 50 μl/minute for 120 seconds and the chip was regenerated for 120 seconds at a flow rate of 10 μl/minute. KD values for binding and disassociation were calculated from the binding kinetics of each protein at five concentrations using the Biacore T200 Software v3.1 application package (GE; 1, 0.9, 0.8, 0.7, 0.6 μM).

IC50 [1]: 1600 nM
Molecule: O=c1c2ccccc2[se]n1-c1ccccc1 [Ebselen]

Molecule: C=C(C)[C@H]1CN[C@H](C(=O)O)[C@H]1CC(=O)O [Kainic Acid]
gliotic response (astrocytosis, IHC for GFAP) [2]: obvious and strong gliotic response

IC50 [1]: 6800 nM
Molecule: O=S(=O)(O)c1cc(N=C=S)ccc1C=Cc1ccc(N=C=S)cc1S(=O)(=O)O [4,4′-Diisothiocyano-stilbene-2,2′ sulfonic acid]

IC50 [1]: 1700 nM
Molecule: COc1cc2c(cc1OC)-c1cc3ccc(OC)c(OC)c3c[n+]1CC2 [Palmatine]

Kd [3]: 237 ± 21 nM
B1: PABPN1: recombinant polyadenylate-binding nuclear protein 1 (protein, UniProt Q86U42 2-306, looked up)
Polyadenylate-binding protein …: AAAAAAAAAAGAAGGRGSGPGRRRHLVPGAGGEAGEGAPGGAGDYGNGLESEELEPEELLLEPEPEPEPEEEPPRPRAPPGAPGPGPGSGAPGSQEEEEEPGLVEGDPGDGAIEDPELEAIKARVREMEEEAEKLKELQNEVEKQMNMSPPPGNAGPVIMSIEEKMEADARSIYVGNVDYGATAEELEAHFHGCGSVNRVTILCDKFSGHPKGFAYIEFSDKESVRTSLALDESLFRGRQIKVIPKRTNRPGISTTDRGFPRARYRARTTNYNSSRSRFYSGFNSRPRGRVYRGRARATSWYSPY

Kd [3]: 60 ± 15 nM
B2: MSUT2: recombinant mammalian suppressor of tauopathy 2, poly(A) RNA binding protein (protein)
chain: MEIGTEISRKIRSAIKGKLQELGAYVDEELPDYIMVMVANKKSQDQMTEDLSLFLGNNTIRFTVWLHGVLDKLRSVTTEPSSLKSSDTNIFDSNVPSNKSNFSRGDERRHEAAVPPLAIPSARPEKRDSRVSTSSQESKTTNVRQTYDDGAATRLMSTVKPLREPAPSEDVIDIKPEPDDLIDEDLNFVQENPLSQKKPTVTLTYGSSRPSIEIYRPPASRNADSGVHLNRLQFQQQQNSIHAAKQLDMQSSWVYETGRLCEPEVLNSLEETYSPFFRNNSEKMSMEDENFRKRKLPVVSSVVKVKKFNHDGEEEEEDDDYGSRTGSISSSVSVPAKPERRPSLPPSKQANKNLILKAISEAQESVTKTTNYSTVPQKQTLPVAPRTRTSQEELLAEVVQGQSRTPRISPPIKEEETKGDSVEKNQGTQQRQLLSRLQIDPVMAETLQMSQDYYDMESMVHADTRSFILKKPKLSEEVVVAPNQESGMKTADSLRVLSGHLMQTRDLVQPDKPASPKFIVTLDGVPSPPGYMSDQEEDMCFEGMKPVNQTAASNKGLRGLLHPQQLHLLSRQLEDPNGSFSNAEMSELSVAQKPEKLLERCKYWPACKNGDECAYHHPISPCKAFPNCKFAEKCLFVHPNCKYDAKCTKPDCPFTHVSRRIPVLSPKPAVAPPAPPSSSQLCRYFPACKKMECPFYHPKHCRFNTQCTRPDCTFYHPTINVPPRHALKWIRPQTSE

From patent publication US11439658B2, “Compositions and methods for suppressing MSUT2” (United States Government As Represented By The Department …, priority 2018, dated 2022)
